From paper PMC7250897, “UDP-glucosyltransferase regulates grain size and abiotic stress tolerance associated with metabolic flux redirection in rice” (Nature Communications, 2020)
Where a chain is given by its changes, count along the chain named.

T1: GSA1^WYJ (Oryza sativa, UniProt Q9AUV3, A349T)
T1 construct: gene Os03g0757500; full-length cDNA in pET21a (NdeI/NotI), E. coli BL21(DE3) pLysS, crude extract; WYJ allele A246, A349
T1 sequence (Q9AUV3 1-457 A349T): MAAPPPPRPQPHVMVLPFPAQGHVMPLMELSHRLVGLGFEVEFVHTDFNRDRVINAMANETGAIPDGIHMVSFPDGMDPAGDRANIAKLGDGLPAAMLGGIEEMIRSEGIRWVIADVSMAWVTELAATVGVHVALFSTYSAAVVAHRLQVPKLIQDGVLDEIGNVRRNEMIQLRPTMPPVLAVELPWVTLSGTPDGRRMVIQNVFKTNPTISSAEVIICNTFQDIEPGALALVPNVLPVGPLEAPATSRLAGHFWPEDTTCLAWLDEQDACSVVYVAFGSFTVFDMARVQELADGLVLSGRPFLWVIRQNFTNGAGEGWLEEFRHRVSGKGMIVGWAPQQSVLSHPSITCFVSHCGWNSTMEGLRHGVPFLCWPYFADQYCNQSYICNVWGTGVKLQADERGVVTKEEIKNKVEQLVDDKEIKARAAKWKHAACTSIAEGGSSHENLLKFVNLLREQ

T2: GSA1^WYJ (Oryza sativa, UniProt Q9AUV3, A246V)
T2 construct: gene Os03g0757500; full-length cDNA in pET21a (NdeI/NotI), E. coli BL21(DE3) pLysS, crude extract; WYJ allele A246, A349
T2 sequence (Q9AUV3 1-457 A246V): T1 sequence (Q9AUV3 1-457 A349T) with A246V, T349A

B1: GSA1^WYJ (Oryza sativa Japonica Group) (protein)
chain: T1 sequence (Q9AUV3 1-457 A349T) with T349A
notes: full-length cDNA in pET21a (NdeI/NotI), E. coli BL21(DE3) pLysS, crude extract; WYJ allele A246, A349

What was measured:
[1] = molecular target: T1, GSA1^WYJ; assay: HPLC glucosyltransferase assay, product peak area; details: 250 μM acceptor, 1.5 mM UDP-glucose, 10 mM MgCl2, glycine-NaOH pH 8.6, 37 °C, 2 h
[2] = molecular target: T2, GSA1^WYJ; assay: HPLC glucosyltransferase assay, product peak area; details: 250 μM acceptor, 1.5 mM UDP-glucose, 10 mM MgCl2, glycine-NaOH pH 8.6, 37 °C, 2 h
[3] = substrate: O=c1c(O)c(-c2ccc(O)cc2)oc2cc(O)cc(O)c12; assay: cells, lysate or membranes; details: sugar acceptor, UDP-glucose as donor, assay buffer 10 mM MgCl2, glycine-NaOH pH 8.6, 37 °C
[4] = substrate: O=c1ccn([C@@H]2O[C@H](CO[P@@](=O)(O)O[P@@](=O)(O)O[C@H]3O[C@H](CO)[C@@H](O)[C@H](O)[C@H]3O)[C@@H](O)[C@H]2O)c(=O)[nH]1; assay: HPLC glucosyltransferase assay, kinetics; assay type: biochemical, Oryza sativa; details: sugar donor, kaempferol as acceptor, 10 mM MgCl2, glycine-NaOH pH 8.6, 37 °C

Row | Molecule | HPLC glucosyltransferase assay, product peak area [1] | HPLC glucosyltransferase assay, product peak area [2] | Km [3] | Km [4]
1 | O=c1c(O)c(-c2ccc(O)cc2)oc2cc(O)cc(O)c12 [kaempferol] | the glucosyltransferase activity of GSA1^A349T was comparable to that of GSA1^CG14 | the glucosyltransferase activity of GSA1^A246V toward kaempferol and sinapyl alcohol was comparable |  | 
2 | COc1cc(/C=C/CO)cc(OC)c1O [sinapyl alcohol] | the glucosyltransferase activity of GSA1^A349T was comparable to that of GSA1^CG14 | the glucosyltransferase activity of GSA1^A246V toward kaempferol and sinapyl alcohol was comparable |  | 
3 | B1 |  |  | 25.54 ± 5.43 µM | 51.06 ± 7.814 µM
